Test results reported in ChEMBL document CHEMBL3507680, “University of Dundee, Gates Library screen for HepG2 cell viability”.

assay: Human HepG2 cell viability assay in 384 well format; assay type: toxicity, cell-based; set-up: dose 125 nL, time 70.5 hour; concentration not given beside the values; conditions: HepG2 cells, read-out: Inhibition

Row | Structure (SMILES) | cytotoxicity at 70.5 h [%]
1 | Cc1nc(C(=O)N2CCN(S(C)(=O)=O)CC2)c(-c2ccccc2)s1 | 9.71
2 | CC(C)(C)C1SCC(=O)Nc2c1c(O)nn2C1CCCCC1 (configuration not stated) | 8.92
3 | O=C(CCNC(=O)c1cnccn1)Nc1ncc[nH]1 | -31.8
4 | CCS(=O)(=O)N1CCc2nnc(CN(C)C(C)C)n2CC1 | 19.5
5 | Cc1occc1C(=O)N1C[C@@H]2CN(S(C)(=O)=O)CCO[C@@H]2C1 | 46.9
6 | CNC(=O)N1CCC2(CC1)C(=O)N(C)c1c(F)cccc12 | 4.07
7 | Cn1nnc2c1CCN(S(C)(=O)=O)C2COCC1CC1 (configuration not stated) | 0.405
8 | O=C(NCCN1CCOCC1)c1cc2c(s1)CCN2Cc1cccnc1 | -3.99
9 | CCN1C(=O)CCCC12CCCN(C(=O)c1ccoc1)C2 (configuration not stated) | -3.69
10 | CN1C(=O)C2(CCN(C(=O)c3cccnc3)CC2)c2cccc(F)c21 | -2.04
11 | Cc1nc(C)c2c(n1)CCN(C(=O)CN(C)C)CC2 | 2.27
12 | CC(C)Nc1ncnc2c1CCNCC2 | 2.95
13 | CN(C)CC(=O)N1CCc2ncnc(-c3ccoc3)c2CC1 | -0.0529
14 | CN1C(=O)CCC12CCCN(C(=O)c1ccoc1)C2 (configuration not stated) | -1.96
15 | Cc1cnc(CNC(=O)c2cc3c(s2)CCN3S(C)(=O)=O)cn1 | -0.66
16 | CS(=O)(=O)N1CCc2c(nnn2CC2CC2)C1COCC1CC1 (configuration not stated) | -1.97
17 | CNC(=O)NC1CC2(CCNCC2)c2ccc(C)cc21 (configuration not stated) | 18.2
18 | CC(C)CN1C(=O)CO[C@@H]2CN(C(=O)N(C)C)C[C@H]21 | 2.11
19 | O=C(NCCc1ccccc1)N1CC[C@@H]2CNS(=O)(=O)[C@@H]2CC1 | 0.679
20 | CC(C)CN1C(=O)CO[C@@H]2CN(C(=O)CC(F)(F)F)C[C@H]21 | -1.53
21 | Cc1cccc(CN2CCS(=O)(=O)[C@@H]3CCN(C(=O)C4CC4)CC[C@@H]32)n1 | 15.9

Row | Structure (SMILES) | cytotoxicity at 70.5 h [%]
22 | Cc1ccnc(C(=O)N2C[C@@H]3CN(S(C)(=O)=O)CCO[C@@H]3C2)c1 | 18
23 | CC(C)N(C)Cc1nnc2n1CCN(S(=O)(=O)C1CC1)CC2 | -0.847
24 | CC(C)N(C)Cc1nnc2n1CCCN(S(=O)(=O)C1CC1)C2 | -5.26
25 | O=C1CC(c2ccncc2)C2(CCN(C(=O)NC3CC3)CC2)N1 (configuration not stated) | -1.57
26 | O=C1NC2(CCN(CCO)CC2)CC1c1ccccc1 (configuration not stated) | -2.09
27 | O=C(c1ccccc1)N1C[C@@H]2CCCO[C@@H]2[C@H](N2CCCC2)C1 | -4.22
28 | O=C(c1ccoc1)N1CCCC2(CCC(=O)N2Cc2ccncc2)C1 (configuration not stated) | -1.87
29 | CC(C)NC(=O)N1CCC2(CC1)NC(=O)CC2c1ccncc1 (configuration not stated) | -1.45
30 | CCS(=O)(=O)N1CC[C@@H]2[C@H](CC1)N(Cc1cccc(C)n1)CCS2(=O)=O | 2.24
31 | CCC(=O)N1CC[C@@H]2[C@H](CC1)N(Cc1cccc(C)n1)CCS2(=O)=O | 1.51
32 | Cc1cc(CN2C[C@H]3CCC[C@@]3(COCC3CCOCC3)C2)no1 | 0.596
33 | CCCC(=O)N1CC[C@@H]2[C@H](CC1)N(Cc1cccc(C)n1)CCS2(=O)=O | -2.09
34 | N#Cc1ccc(N2CCC3(CC2)CC(Oc2cccnc2)CO3)cc1 (configuration not stated) | 9.42
35 | N#Cc1cccc(CN2CC3(CCCCN3c3cncnc3)CC2=O)c1 (configuration not stated) | -0.331
36 | Cc1ccc(C(=O)N2C[C@@H]3CCCO[C@@H]3[C@H](N3CCCC3)C2)cn1 | 0.948
37 | Cc1ccc2c(n1)N(CC1CC1)CCN(Cc1ccco1)C2 | 1.82
38 | c1ccc(CN2C[C@H]3CCC[C@@]3(COCC3CCOCC3)C2)nc1 | 0.897
39 | c1ccc(CN2C[C@@H]3COC[C@]3(COCC3CCOCC3)C2)nc1 | 1.04
40 | Cc1nc2c(c(NC(C)C)n1)CCN(Cc1cccnc1)CC2 | 4.65
41 | c1ccc(CN2CCc3ncnc(N4CCCC4)c3CC2)nc1 | -4.15
42 | Cn1cc(CN2CCc3ncnc(N4CCOCC4)c3CC2)cn1 | -1.66
